The results in this text go back to US20170189417A1, “PHARMACEUTICAL COMPOSITION FOR TREATING COLORECTAL CANCER” (MA SHEN KAI RUEI CO., LTD., priority 2015, published 2017).

Test [1] concerns human colorectal-cancer cells HT-29. Description: MTT ex vivo survival assay, HT-29. Type of test: cell-based. Particulars: HT-29 cell line; for half-maximal inhibitory concentration (IC50): isolated agents, stated in words only. On the procedure:
(§1) The Antroquinonol B (AnQB) and Zhankuic acid D (ZhAD) separately isolated from the Extraction A of Example 1 were added into the culture media of human colorectal-cancer cells, HT-29 or SW-480, to test for tumor cell survival by using anti-cancer drug screen model. This survival assay was carried out with the widely known MTT (3-[4,5-dimethylthiazol-2-yl]2,5-diphenyltetrazolium bromide) assay.
(§2) HT-29 cell line (purchased from ATCC) is a human colorectal adenocarcinoma cell line with epithelial morphology. These cells are sensitive to the chemotherapeutic drugs 5-fluorouracil and oxaliplatin, which are standard treatment options for colorectal cancer. In addition to being a xenograft tumor model for colorectal cancer, the HT-29 cell line is also used as an in-vitro model to study survival assay. And the other one, SW-480 is Dukes' type B, colorectal adenocarcinoma which is a difficult tumor with a low survival rate.
(§3) The human colorectal-cancer cells, HT-29 and SW-480 were cultivated in media containing fetal calf serum for 18 hours. The proliferated cells were washed once with PBS, then treated with 1× trypsin-EDTA and centrifuged at 1200 rpm for 45 minutes. The supernatant was discarded and the cell pellet was re-suspended in […] of fresh culture medium by gently shaking. The cells were placed in a 96-well plate.
(§4) Subsequently, the plates were read on an ELISA reader to determine the survival rates. The half maximal inhibitory concentration (IC50) values were calculated and results of ex vivo survival assay were thus obtained.
(§5) By using the same manner as the method described above, respectively human colorectal cancer cell line HT-29 and Sw-480 was cultured. After then, the pharmaceutical compositions A˜F of the present invention was applied separately, and then MTT assay for each sample was measured to assess the inhibition effectiveness of various cancer cell activity while using pharmaceutical compositions A˜F of the present invention.

The subject of test [2] is human colorectal-cancer cells SW-480. Description: MTT ex vivo survival assay, SW-480. As to conditions: SW-480 cell line; for half-maximal inhibitory concentration (IC50): isolated agents, stated in words only. Type of test: cell-based. On the procedure:
as §1, §2, §3, §4, §5

“Also recorded” adds a separate entry of the source.

For the compound `C=C(CC[C@@H](C(=O)O)[C@H]1CC[C@@]2(C)C3=CC[C@H]4C(C)(C)[C@@H](O)CC[C@]4(C)C3=CC[C@]12C)C(C)C`, in test [1], the “tumor cell survival rate / growth inhibition (MTT assay)” value was “can inhibit the growth of colorectal cancer cell; also recorded: can decrease the survival rates” and the “half-maximal inhibitory concentration (IC50)” value is reported as “relatively low”. In test [2], the “tumor cell survival rate / growth inhibition (MTT assay)” value was “can inhibit the growth of colorectal cancer cell; also recorded: can decrease the survival rates” and the “half-maximal inhibitory concentration (IC50)” value is on record as “relatively low”.
Take `COC1=C(OC)[C@H](O)[C@H](C/C=C(\C)CC/C=C(/C)C/C=C/C(C)(C)O)[C@@H](C)C1=O` [Antroquinonol B]: in test [1], the “tumor cell survival rate / growth inhibition (MTT assay)” value is recorded as “can inhibit the growth of colorectal cancer cell; also recorded: can decrease the survival rates” and the “half-maximal inhibitory concentration (IC50)” value is given as “relatively low”. Also, in test [2], the “tumor cell survival rate / growth inhibition (MTT assay)” value is “can inhibit the growth of colorectal cancer cell; also recorded: can decrease the survival rates” and the “half-maximal inhibitory concentration (IC50)” value is “relatively low”.
